According to patent publication US20030215462A1, “Use of UGT inhibitors to increase bioavailability” (priority 2001, published 2003):

Experiments:
UGT1A6 [1] = target: T1, UGT1A6 (Homo sapiens, UniProt P19224)
T1 sequence (P19224 27-532): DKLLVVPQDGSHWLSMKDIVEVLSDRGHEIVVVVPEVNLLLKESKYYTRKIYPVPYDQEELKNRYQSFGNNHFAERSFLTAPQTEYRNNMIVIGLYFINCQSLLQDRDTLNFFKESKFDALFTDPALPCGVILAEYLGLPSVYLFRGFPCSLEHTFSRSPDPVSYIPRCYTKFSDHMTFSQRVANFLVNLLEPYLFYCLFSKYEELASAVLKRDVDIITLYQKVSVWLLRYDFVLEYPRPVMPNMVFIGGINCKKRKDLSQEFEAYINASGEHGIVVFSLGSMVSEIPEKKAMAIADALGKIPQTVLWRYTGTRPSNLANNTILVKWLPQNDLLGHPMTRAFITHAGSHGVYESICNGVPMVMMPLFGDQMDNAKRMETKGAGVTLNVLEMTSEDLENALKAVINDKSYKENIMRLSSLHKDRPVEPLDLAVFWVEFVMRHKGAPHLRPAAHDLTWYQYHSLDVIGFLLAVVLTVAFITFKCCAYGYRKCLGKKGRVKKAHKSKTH

UGT1A4 = UGT1A4 (Homo sapiens, UniProt P22310)
UGT1A6 [2] = target: T1, UGT1A6; test: Substrate glucuronidation by recombinant UGT1A6; conditions: for 7-HFC glucuronidation rate: 7-HFC 50 μM
human liver microsomes = test: Glucuronidation of UGT substrates by human liver microsomes; conditions: for 7-HFC glucuronidation rate: 100 μg/ml protein, 1 mM UDPGA, 15 min
[3] = as above; conditions: human, human liver microsomes, pH 7.5

UGT1A4, sequence (P22310 29-534): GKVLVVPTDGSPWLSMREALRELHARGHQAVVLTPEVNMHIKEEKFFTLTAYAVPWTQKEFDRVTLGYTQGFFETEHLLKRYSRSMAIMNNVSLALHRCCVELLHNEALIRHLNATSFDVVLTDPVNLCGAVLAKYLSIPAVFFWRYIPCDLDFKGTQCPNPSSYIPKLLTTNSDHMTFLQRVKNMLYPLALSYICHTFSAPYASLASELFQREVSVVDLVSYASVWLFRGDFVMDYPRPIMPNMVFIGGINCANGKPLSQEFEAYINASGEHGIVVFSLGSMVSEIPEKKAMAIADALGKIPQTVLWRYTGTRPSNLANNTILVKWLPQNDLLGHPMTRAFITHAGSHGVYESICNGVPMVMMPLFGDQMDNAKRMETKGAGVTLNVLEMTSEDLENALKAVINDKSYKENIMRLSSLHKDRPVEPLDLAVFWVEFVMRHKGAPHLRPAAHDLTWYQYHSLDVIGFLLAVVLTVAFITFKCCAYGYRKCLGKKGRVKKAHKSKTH

Compound | labetalol metabolism, in words (UGT1A6 [1]) | labetalol metabolism, in words (UGT1A4) | 7-HFC glucuronidation rate in Panvera Bacculosomes as % of Gentest Supersomes (UGT1A6 [2]; UGT1A6) | 7-HFC glucuronidation rate (UGT1A6 [2]; UGT1A6 Bacculosomes 250 μg/ml) | 7-HFC glucuronidation rate (UGT1A6 [2]; UGT1A6 Supersomes 250 μg/ml) | 7-HFC glucuronidation rate in human liver microsomes, times higher than UGT1A6 Supersomes (human liver microsomes) | 7-HFC metabolism rate (human liver microsomes; human liver microsomes (table footnote)) | 7-HFC glucuronidation rate (human liver microsomes; liver microsome lot 032101) | 7-HFC glucuronidation rate (human liver microsomes; liver microsome lot 062101) | 7-HFC glucuronidation rate (human liver microsomes; liver microsome lot 062900) | mean apparent Vmax for 7-HFC glucuronidation (human liver microsomes; microsome lot 062900, substrate 20-500 μM) | Km at 15 min [3]
CC(CCc1ccccc1)NCC(O)c1ccc(O)c(C(N)=O)c1 (stereo not drawn) [Labetalol, labetalol] | No detectable metabolism was observed | No detectable metabolism was observed | – | – | – | – | – | – | – | – | – | –
O=c1cc(C(F)(F)F)c2ccc(O)cc2o1 [7-HFC, 7-hydroxy-4-(trifluoromethyl)coumarin] | – | – | 31% | 1528 ± 34 pmol/min/mg protein | 4904 ± 368 pmol/min/mg protein | 6 times | 26,405 ± 272 pmol/min/mg | 29,907±562 pmol/min/mg | 33,039±493 pmol/min/mg | 26,405±272 pmol/min/mg | 60 nmol/min/mg microsomal protein | 85 µM
